Measurements: paper PMC3445516 (PLoS ONE, 2012)

How the values were obtained:
Assay in all cases: Ambit kinase profiling, competition binding
ABL1(Q252H) = target: T1, ABL1(Q252H) (Homo sapiens, UniProt P00519, Q252H); details: compound concentration 10 uM, read-out: Percent Competition
T1 construct: purchased Ambit Biosciences (KINOMEscan)
Text: (§1) Supplement pone.0044653.s004.xls, sheet "Compound 122" | column: Percent Competition

ABL1(T315I) = target: T2, ABL1(T315I) (Homo sapiens, UniProt P00519, T315I); details: compound concentration 10 uM, read-out: Percent Competition
T2 construct: purchased Ambit Biosciences (KINOMEscan)
Text: as §1

ABL1(Y253F) = target: T3, ABL1(Y253F) (Homo sapiens, UniProt P00519, Y253F); details: compound concentration 10 uM, read-out: Percent Competition
T3 construct: purchased Ambit Biosciences (KINOMEscan)
Text: as §1

AMPK-alpha2 = target: T4, AMPK-alpha2 (Homo sapiens, UniProt P54646); details: compound concentration 10 uM, read-out: Percent Competition
T4 construct: purchased Ambit Biosciences (KINOMEscan)
T4 sequence (P54646 whole entry): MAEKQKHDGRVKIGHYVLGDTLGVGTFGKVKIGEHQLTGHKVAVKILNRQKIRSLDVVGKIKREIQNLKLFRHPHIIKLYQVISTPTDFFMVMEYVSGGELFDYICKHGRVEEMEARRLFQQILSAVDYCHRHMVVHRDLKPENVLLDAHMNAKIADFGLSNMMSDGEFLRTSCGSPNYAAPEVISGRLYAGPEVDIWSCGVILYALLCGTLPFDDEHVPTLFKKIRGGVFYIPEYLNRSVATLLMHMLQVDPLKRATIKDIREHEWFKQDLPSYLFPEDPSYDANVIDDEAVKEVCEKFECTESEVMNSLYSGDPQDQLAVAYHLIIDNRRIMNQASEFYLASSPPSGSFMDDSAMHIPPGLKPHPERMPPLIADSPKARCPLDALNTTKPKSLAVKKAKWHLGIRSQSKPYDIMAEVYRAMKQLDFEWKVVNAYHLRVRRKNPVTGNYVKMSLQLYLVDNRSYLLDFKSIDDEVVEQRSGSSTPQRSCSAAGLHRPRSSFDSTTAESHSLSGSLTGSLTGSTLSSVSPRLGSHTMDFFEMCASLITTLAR
Text: as §1

ASK1 = target: T5, ASK1 (Homo sapiens, UniProt Q99683); details: compound concentration 10 uM, read-out: Percent Competition
T5 construct: purchased Ambit Biosciences (KINOMEscan)
Text: as §1

BLK = target: T6, BLK (Homo sapiens, UniProt P51451); details: compound concentration 10 uM, read-out: Percent Competition
T6 construct: purchased Ambit Biosciences (KINOMEscan)
Text: as §1

BRSK1 = target: T7, BRSK1 (Homo sapiens, UniProt Q8TDC3); details: compound concentration 10 uM, read-out: Percent Competition
T7 construct: purchased Ambit Biosciences (KINOMEscan)
Text: as §1

ERBB2 = target: T8, ERBB2 (Homo sapiens, UniProt P04626); details: compound concentration 10 uM, read-out: Percent Competition
T8 construct: purchased Ambit Biosciences (KINOMEscan)
Text: as §1

FAK = target: T9, FAK (Homo sapiens, UniProt Q05397); details: compound concentration 10 uM, read-out: Percent Competition
T9 construct: purchased Ambit Biosciences (KINOMEscan)
Text: as §1

FGFR3 = target: T10, FGFR3 (Homo sapiens, UniProt P22607); details: compound concentration 10 uM, read-out: Percent Competition
T10 construct: purchased Ambit Biosciences (KINOMEscan)
T10 sequence (P22607 23-806): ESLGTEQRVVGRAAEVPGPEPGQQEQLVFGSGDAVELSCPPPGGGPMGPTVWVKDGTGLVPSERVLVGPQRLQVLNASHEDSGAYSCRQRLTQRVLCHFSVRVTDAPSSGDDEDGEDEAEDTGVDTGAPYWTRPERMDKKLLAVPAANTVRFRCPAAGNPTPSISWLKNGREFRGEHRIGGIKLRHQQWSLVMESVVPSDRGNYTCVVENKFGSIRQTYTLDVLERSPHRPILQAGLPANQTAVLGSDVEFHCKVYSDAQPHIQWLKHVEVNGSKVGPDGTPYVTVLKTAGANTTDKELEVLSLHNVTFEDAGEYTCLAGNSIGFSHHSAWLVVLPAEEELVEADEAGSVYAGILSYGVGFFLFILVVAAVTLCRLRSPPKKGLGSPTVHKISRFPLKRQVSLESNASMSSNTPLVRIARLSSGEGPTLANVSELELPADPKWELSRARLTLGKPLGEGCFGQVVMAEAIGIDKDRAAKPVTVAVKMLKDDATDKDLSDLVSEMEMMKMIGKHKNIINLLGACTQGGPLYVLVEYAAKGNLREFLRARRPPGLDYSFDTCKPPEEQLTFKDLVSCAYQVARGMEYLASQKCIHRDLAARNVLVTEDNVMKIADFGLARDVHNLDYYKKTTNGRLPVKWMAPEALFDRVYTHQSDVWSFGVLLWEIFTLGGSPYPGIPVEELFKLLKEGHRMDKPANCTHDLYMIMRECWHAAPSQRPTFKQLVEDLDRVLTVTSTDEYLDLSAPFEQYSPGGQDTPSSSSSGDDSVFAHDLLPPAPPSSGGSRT
Text: as §1

FGFR3(G697C) = target: T11, FGFR3(G697C) (Homo sapiens, UniProt P22607, G697C); details: compound concentration 10 uM, read-out: Percent Competition
T11 construct: purchased Ambit Biosciences (KINOMEscan)
T11 sequence (P22607 23-806 G697C): as the sequence (P22607 23-806) above, with G675C counted along it
Text: as §1

FGR = target: T12, FGR (Homo sapiens, UniProt P09769); details: compound concentration 10 uM, read-out: Percent Competition
T12 construct: purchased Ambit Biosciences (KINOMEscan)
T12 sequence (P09769 whole entry): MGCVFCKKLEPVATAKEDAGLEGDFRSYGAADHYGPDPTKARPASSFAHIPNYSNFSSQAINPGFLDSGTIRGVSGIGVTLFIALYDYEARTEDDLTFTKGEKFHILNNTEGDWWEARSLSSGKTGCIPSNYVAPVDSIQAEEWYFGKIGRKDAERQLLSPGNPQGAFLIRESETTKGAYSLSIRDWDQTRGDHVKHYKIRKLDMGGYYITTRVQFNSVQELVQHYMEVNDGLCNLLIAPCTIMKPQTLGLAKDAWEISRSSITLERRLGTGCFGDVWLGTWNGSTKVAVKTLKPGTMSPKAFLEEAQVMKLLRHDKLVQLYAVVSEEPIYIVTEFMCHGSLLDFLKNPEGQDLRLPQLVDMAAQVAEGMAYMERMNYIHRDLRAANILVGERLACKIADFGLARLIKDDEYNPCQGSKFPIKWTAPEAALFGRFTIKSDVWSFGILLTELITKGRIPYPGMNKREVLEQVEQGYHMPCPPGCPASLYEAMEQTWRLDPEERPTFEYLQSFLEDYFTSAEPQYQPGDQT
Text: as §1

GCN2(Kin.Dom.2,S808G) = target: T13, GCN2(Kin.Dom.2,S808G) (Homo sapiens, UniProt Q9P2K8, S808G); details: compound concentration 10 uM, read-out: Percent Competition
T13 construct: GCN2(Kin.Dom.2,S808G); purchased Ambit Biosciences (KINOMEscan)
Text: as §1

HIPK1 = target: T14, HIPK1 (Homo sapiens, UniProt Q86Z02); details: compound concentration 10 uM, read-out: Percent Competition
T14 construct: purchased Ambit Biosciences (KINOMEscan)
T14 sequence (Q86Z02 whole entry): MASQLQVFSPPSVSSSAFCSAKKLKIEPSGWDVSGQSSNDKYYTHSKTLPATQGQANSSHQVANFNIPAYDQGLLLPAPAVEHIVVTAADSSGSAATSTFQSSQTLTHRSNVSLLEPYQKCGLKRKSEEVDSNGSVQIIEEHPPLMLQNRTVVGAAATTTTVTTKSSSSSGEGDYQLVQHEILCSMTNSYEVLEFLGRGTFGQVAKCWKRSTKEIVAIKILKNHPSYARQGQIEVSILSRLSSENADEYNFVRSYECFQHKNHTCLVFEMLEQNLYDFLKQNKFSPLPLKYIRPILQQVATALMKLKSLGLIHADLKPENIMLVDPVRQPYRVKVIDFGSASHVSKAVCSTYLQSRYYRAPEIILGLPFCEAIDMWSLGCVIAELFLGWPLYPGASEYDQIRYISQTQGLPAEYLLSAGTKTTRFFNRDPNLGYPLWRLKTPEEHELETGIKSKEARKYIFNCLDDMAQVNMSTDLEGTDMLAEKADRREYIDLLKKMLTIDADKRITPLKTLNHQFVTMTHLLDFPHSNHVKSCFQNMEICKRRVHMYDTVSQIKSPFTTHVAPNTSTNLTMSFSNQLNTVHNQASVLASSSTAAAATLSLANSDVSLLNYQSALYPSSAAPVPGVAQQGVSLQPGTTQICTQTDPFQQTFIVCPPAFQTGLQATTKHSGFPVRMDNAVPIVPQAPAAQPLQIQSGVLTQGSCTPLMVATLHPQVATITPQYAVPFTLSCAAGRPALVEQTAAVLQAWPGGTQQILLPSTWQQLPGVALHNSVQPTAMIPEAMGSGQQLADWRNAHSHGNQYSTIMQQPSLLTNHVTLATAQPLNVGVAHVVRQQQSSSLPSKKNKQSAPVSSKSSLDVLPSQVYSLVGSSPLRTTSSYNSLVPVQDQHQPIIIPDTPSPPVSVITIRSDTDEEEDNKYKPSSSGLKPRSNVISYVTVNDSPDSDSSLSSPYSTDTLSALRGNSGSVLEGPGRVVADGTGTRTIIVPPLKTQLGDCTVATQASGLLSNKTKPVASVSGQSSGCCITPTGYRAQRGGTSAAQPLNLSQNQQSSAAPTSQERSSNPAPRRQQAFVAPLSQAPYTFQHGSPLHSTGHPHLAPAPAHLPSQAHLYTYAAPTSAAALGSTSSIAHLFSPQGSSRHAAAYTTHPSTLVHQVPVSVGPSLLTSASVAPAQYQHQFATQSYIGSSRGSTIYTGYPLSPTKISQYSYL
Text: as §1

INSRR = target: T15, INSRR (Homo sapiens, UniProt P14616); details: compound concentration 10 uM, read-out: Percent Competition
T15 construct: purchased Ambit Biosciences (KINOMEscan)
Text: as §1

[1] = target: T16, JAK1(JH1domain-catalytic) (Homo sapiens, UniProt P23458); details: compound concentration 10 uM
T16 construct: JAK1(JH1domain-catalytic); purchased Ambit Biosciences (KINOMEscan)
T16 sequence (P23458 856-1154 limits assumed): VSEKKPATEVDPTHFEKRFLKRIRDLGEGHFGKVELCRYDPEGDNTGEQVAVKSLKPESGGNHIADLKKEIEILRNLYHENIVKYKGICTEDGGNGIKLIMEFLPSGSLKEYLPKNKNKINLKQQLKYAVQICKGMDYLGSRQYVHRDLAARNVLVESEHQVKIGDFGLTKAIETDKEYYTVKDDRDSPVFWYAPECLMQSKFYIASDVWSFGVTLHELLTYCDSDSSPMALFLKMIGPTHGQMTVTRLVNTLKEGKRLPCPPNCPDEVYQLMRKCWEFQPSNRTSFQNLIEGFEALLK
Text: as §1

KIT = target: T17, KIT (Homo sapiens, UniProt P10721); details: compound concentration 10 uM, read-out: Percent Competition
T17 construct: purchased Ambit Biosciences (KINOMEscan)
T17 sequence (P10721 26-976): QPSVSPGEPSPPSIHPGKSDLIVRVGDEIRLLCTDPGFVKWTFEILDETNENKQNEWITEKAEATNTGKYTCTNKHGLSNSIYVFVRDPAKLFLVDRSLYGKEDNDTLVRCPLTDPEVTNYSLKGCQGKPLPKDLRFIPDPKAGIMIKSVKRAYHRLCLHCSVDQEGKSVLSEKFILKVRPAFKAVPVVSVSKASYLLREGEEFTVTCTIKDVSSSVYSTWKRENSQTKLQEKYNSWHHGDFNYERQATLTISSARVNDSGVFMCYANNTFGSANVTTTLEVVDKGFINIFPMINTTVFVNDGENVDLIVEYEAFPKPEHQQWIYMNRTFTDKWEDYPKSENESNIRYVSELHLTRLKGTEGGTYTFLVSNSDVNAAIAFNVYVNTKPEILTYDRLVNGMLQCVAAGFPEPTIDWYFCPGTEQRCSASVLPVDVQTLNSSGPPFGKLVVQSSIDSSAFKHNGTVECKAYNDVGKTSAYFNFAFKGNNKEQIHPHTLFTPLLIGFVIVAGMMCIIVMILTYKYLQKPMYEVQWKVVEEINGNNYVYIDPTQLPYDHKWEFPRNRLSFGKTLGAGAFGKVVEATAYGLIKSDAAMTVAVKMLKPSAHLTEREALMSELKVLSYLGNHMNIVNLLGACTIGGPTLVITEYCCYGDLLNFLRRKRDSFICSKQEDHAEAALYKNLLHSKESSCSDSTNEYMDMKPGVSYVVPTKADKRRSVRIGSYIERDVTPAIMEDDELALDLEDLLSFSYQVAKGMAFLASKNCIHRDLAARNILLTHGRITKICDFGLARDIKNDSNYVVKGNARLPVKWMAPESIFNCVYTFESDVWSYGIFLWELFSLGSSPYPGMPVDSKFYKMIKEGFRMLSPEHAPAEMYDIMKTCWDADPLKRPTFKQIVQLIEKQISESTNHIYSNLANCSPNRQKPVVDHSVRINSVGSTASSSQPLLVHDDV
Text: as §1

KIT(D816V) = target: T18, KIT(D816V) (Homo sapiens, UniProt P10721, D816V); details: compound concentration 10 uM, read-out: Percent Competition
T18 construct: purchased Ambit Biosciences (KINOMEscan)
T18 sequence (P10721 26-976 D816V): as the sequence (P10721 26-976) above, with D791V counted along it
Text: as §1

LIMK1 = target: T19, LIMK1 (Homo sapiens, UniProt P53667); details: compound concentration 10 uM, read-out: Percent Competition
T19 construct: purchased Ambit Biosciences (KINOMEscan)
T19 sequence (P53667 whole entry): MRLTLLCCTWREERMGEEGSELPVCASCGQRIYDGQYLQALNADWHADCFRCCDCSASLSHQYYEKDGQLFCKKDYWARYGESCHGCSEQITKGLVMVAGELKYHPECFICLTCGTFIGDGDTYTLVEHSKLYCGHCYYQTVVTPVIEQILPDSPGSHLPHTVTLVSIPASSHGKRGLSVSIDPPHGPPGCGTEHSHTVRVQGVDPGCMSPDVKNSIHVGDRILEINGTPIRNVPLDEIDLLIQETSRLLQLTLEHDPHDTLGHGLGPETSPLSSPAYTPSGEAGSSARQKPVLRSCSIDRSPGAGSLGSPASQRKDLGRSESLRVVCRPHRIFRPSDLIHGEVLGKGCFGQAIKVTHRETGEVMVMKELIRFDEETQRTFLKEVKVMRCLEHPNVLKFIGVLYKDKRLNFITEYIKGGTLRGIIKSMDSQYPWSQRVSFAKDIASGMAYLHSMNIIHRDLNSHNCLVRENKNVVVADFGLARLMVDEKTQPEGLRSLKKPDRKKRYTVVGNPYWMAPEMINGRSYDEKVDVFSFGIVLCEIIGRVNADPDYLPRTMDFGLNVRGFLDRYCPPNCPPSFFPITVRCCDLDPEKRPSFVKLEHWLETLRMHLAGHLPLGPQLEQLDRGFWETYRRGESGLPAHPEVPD
Text: as §1

LOK = target: T20, LOK (Homo sapiens, UniProt O94804); details: compound concentration 10 uM
T20 construct: purchased Ambit Biosciences (KINOMEscan)
Text: as §1

MYLK = target: T21, MYLK (Homo sapiens, UniProt Q15746); details: compound concentration 10 uM, read-out: Percent Competition
T21 construct: purchased Ambit Biosciences (KINOMEscan)
Text: as §1

NDR2 = target: T22, NDR2 (Homo sapiens, UniProt Q9Y2H1); details: compound concentration 10 uM, read-out: Percent Competition
T22 construct: purchased Ambit Biosciences (KINOMEscan)
Text: as §1

NEK5 = target: T23, NEK5 (Homo sapiens, UniProt Q6P3R8); details: compound concentration 10 uM, read-out: Percent Competition
T23 construct: purchased Ambit Biosciences (KINOMEscan)
Text: as §1

NEK7 = target: T24, NEK7 (Homo sapiens, UniProt Q8TDX7); details: compound concentration 10 uM, read-out: Percent Competition
T24 construct: purchased Ambit Biosciences (KINOMEscan)
Text: as §1

PAK3 = target: T25, PAK3 (Homo sapiens, UniProt O75914); details: compound concentration 10 uM, read-out: Percent Competition
T25 construct: purchased Ambit Biosciences (KINOMEscan)
Text: as §1

PAK6 = target: T26, PAK6 (Homo sapiens, UniProt Q9NQU5); details: compound concentration 10 uM, read-out: Percent Competition
T26 construct: purchased Ambit Biosciences (KINOMEscan)
Text: as §1

PIK3CA = target: T27, PIK3CA (Homo sapiens, UniProt P42336); details: compound concentration 10 uM, read-out: Percent Competition
T27 construct: purchased Ambit Biosciences (KINOMEscan)
Text: as §1

PIK3CA(E545K) = target: T28, PIK3CA(E545K) (Homo sapiens, UniProt P42336, E545K); details: compound concentration 10 uM, read-out: Percent Competition
T28 construct: purchased Ambit Biosciences (KINOMEscan)
Text: as §1

PIK3CB = target: T29, PIK3CB (Homo sapiens, UniProt P42338); details: compound concentration 10 uM, read-out: Percent Competition
T29 construct: purchased Ambit Biosciences (KINOMEscan)
Text: as §1

PKAC-alpha = target: T30, PKAC-alpha (Homo sapiens, UniProt P17612); details: compound concentration 10 uM, read-out: Percent Competition
T30 construct: purchased Ambit Biosciences (KINOMEscan)
Text: as §1

PLK3 = target: T31, PLK3 (Homo sapiens, UniProt Q9H4B4); details: compound concentration 10 uM, read-out: Percent Competition
T31 construct: purchased Ambit Biosciences (KINOMEscan)
Text: as §1

RIOK2 = target: T32, RIOK2 (Homo sapiens, UniProt Q9BVS4); details: compound concentration 10 uM, read-out: Percent Competition
T32 construct: purchased Ambit Biosciences (KINOMEscan)
Text: as §1

RIOK3 = target: T33, RIOK3 (Homo sapiens, UniProt O14730); details: compound concentration 10 uM, read-out: Percent Competition
T33 construct: purchased Ambit Biosciences (KINOMEscan)
Text: as §1

[2] = target: T34, RPS6KA4(Kin.Dom.1-N-terminal) (Homo sapiens, UniProt O75676); details: compound concentration 10 uM, read-out: Percent Competition
T34 construct: RPS6KA4(Kin.Dom.1-N-terminal); purchased Ambit Biosciences (KINOMEscan)
Text: as §1

[3] = target: T35, RPS6KA6(Kin.Dom.1-N-terminal) (Homo sapiens, UniProt Q9UK32); details: compound concentration 10 uM
T35 construct: RPS6KA6(Kin.Dom.1-N-terminal); purchased Ambit Biosciences (KINOMEscan)
Text: as §1

SRMS = target: T36, SRMS (Homo sapiens, UniProt Q9H3Y6); details: compound concentration 10 uM, read-out: Percent Competition
T36 construct: purchased Ambit Biosciences (KINOMEscan)
Text: as §1

SRPK2 = target: T37, SRPK2 (Homo sapiens, UniProt P78362); details: compound concentration 10 uM, read-out: Percent Competition
T37 construct: purchased Ambit Biosciences (KINOMEscan)
Text: as §1

SRPK3 = target: T38, SRPK3 (Homo sapiens, UniProt Q9UPE1); details: compound concentration 10 uM, read-out: Percent Competition
T38 construct: purchased Ambit Biosciences (KINOMEscan)
Text: as §1

SgK085 = target: T39, SgK085 (Homo sapiens, UniProt Q86YV6); details: compound concentration 10 uM, read-out: Percent Competition
T39 construct: purchased Ambit Biosciences (KINOMEscan)
Text: as §1

inhibition at 10 µM (ABL1(Q252H)): < 50% | inhibition at 10 µM (ABL1(T315I)): < 50% | inhibition at 10 µM (ABL1(Y253F)): < 50% | inhibition at 10 µM (AMPK-alpha2): < 50% | inhibition at 10 µM (ASK1): < 50% | inhibition at 10 µM (BLK): < 50% | inhibition at 10 µM (BRSK1): < 50% | inhibition at 10 µM (ERBB2): < 50% | inhibition at 10 µM (FAK): < 50% | inhibition at 10 µM (FGFR3): < 50% | inhibition at 10 µM (FGFR3(G697C)): < 50% | inhibition at 10 µM (FGR): < 50% | inhibition at 10 µM (GCN2(Kin.Dom.2,S808G)): < 50% | inhibition at 10 µM (HIPK1): < 50% | inhibition at 10 µM (INSRR): < 50% | Percent Competition [1]: <50% | inhibition at 10 µM (KIT): < 50% | inhibition at 10 µM (KIT(D816V)): < 50% | inhibition at 10 µM (LIMK1): < 50% | Percent Competition (LOK): <50% | inhibition at 10 µM (MYLK): < 50% | inhibition at 10 µM (NDR2): < 50% | inhibition at 10 µM (NEK5): < 50% | inhibition at 10 µM (NEK7): < 50% | inhibition at 10 µM (PAK3): < 50% | inhibition at 10 µM (PAK6): < 50% | inhibition at 10 µM (PIK3CA): < 50% | inhibition at 10 µM (PIK3CA(E545K)): < 50% | inhibition at 10 µM (PIK3CB): < 50% | inhibition at 10 µM (PKAC-alpha): < 50% | inhibition at 10 µM (PLK3): < 50% | inhibition at 10 µM (RIOK2): < 50% | inhibition at 10 µM (RIOK3): < 50% | inhibition at 10 µM [2]: < 50% | Percent Competition [3]: <50% | inhibition at 10 µM (SRMS): < 50% | inhibition at 10 µM (SRPK2): < 50% | inhibition at 10 µM (SRPK3): < 50% | inhibition at 10 µM (SgK085): < 50%
Compound: Fc1ccc(-c2c(-c3ccncc3)[nH]c3nccnc23)cc1 [RO1155697-000-005]
